Counter-ions that a name gives are not always drawn. Like-named read-outs stand apart in the source and are kept apart here. Where a SMILES comes first, the peptide text is derived from it. Bridges are numbered along the chain shown (N, C = ends). [ ]: non-standard residue; d: D form. 2Nal = N[C@@H](Cc1ccc2ccccc2c1)C(=O)O; Lys(iPr) = CC(C)NCCCC[C@H](N)C(=O)O
How the values were obtained:
[1] = target: T1, SARS-CoV-2 PLpro (nsp3 1564–1878) (Severe acute respiratory syndrome coronavirus 2, UniProt P0DTD1); assay: biochemical; design: FRET-quenched peptide (Pro3) cleavage by PLpro, 10 min pre-incubation, slope over 20 min, normalised to no-compound control; conditions: read-out: % of control remaining
[2] = target: T1, SARS-CoV-2 PLpro (nsp3 1564–1878); assay: biochemical; design: FRET-quenched peptide (Pro3) cleavage by PLpro, 10 min pre-incubation, slope over 20 min, normalised to no-compound control; conditions: read-out: % of control remaining; remark: listed apart in the source

CC(C)(C)Cn1c(N)nc2ccc(-c3[nH]c(C(C)(C)C)nc3-c3ccc(F)cc3)nc21 [LY2228820]
remaining activity at 3.75 µM ([1]; Well no.=4915, high concentration screen): 99.6%
remaining activity at 1.25 µM ([2]; Well no.=4915, low concentration screen): 98.6%

CC(C)NCCCC[C@H](NC(=O)[C@H]1CCC(=O)N[C@@H](Cc2ccccc2)C(=O)N[C@@H](Cc2ccc(O)cc2)C(=O)N[C@@H](CCCCNC(C)C)C(=O)N[C@H](CCCN=C(N)N)C(=O)N[C@@H](Cc2ccc3ccccc3c2)C(=O)NCC(=O)N1)C(N)=O [LY2510924] (FY[Lys(iPr)][dR][2Nal]G[dE][Lys(iPr)]-NH2; lactam N-7)
remaining activity at 3.75 µM ([1]; Well no.=8513, high concentration screen): 102%
remaining activity at 1.25 µM ([2]; Well no.=8513, low concentration screen): 101%

O=C(Nc1ncc(SCCN2CCCC2)s1)[C@]1(c2ccc(S(=O)(=O)C3CC3)cc2)C[C@H]1C1CCCCC1 [LY2608204]
remaining activity at 3.75 µM ([1]; Well no.=4772, high concentration screen): 99.2%
remaining activity at 1.25 µM ([2]; Well no.=4772, low concentration screen): 100%

Cc1cc(Nc2cc(CN3CCOCC3)c3nc(C)c(Cc4ccc(Cl)cc4F)n3n2)n[nH]1 [LY2784544]
remaining activity at 3.75 µM ([1]; Well no.=4806, high concentration screen): 101%
remaining activity at 1.25 µM ([2]; Well no.=4806, low concentration screen): 98.3%

C[C@@]1(c2cc(-c3cncnc3)c(F)cc2F)CCSC(N)=N1 [LY2811376]
remaining activity at 3.75 µM ([1]; Well no.=4949, high concentration screen): 103%
remaining activity at 1.25 µM ([2]; Well no.=4949, low concentration screen): 101%

NC1=N[C@@]2(c3cc(NC(=O)c4ccc(F)cn4)ccc3F)COC[C@H]2CS1 [LY2886721]
remaining activity at 3.75 µM ([1]; Well no.=4774, high concentration screen): 102%
remaining activity at 1.25 µM ([2]; Well no.=4774, low concentration screen): 99.9%

CN(C(=O)c1ccc(F)cc1C(F)(F)F)C1CCN(c2nnc(-c3ccnn3C)c3ccccc23)CC1 [LY2940680]
remaining activity at 3.75 µM ([1]; Well no.=4890, high concentration screen): 82.4%
remaining activity at 1.25 µM ([2]; Well no.=4890, low concentration screen): 88.9%

O=c1cc(N2CCOCC2)oc2c(-c3ccccc3)cccc12 [LY 294002 hydrochloride - 2-(4-Morpholinyl)-8-phenyl-4H-1-benzopyran-4-one hydrochloride]
remaining activity at 3.75 µM ([1]; Well no.=2344, high concentration screen): 98.8%
remaining activity at 1.25 µM ([2]; Well no.=2344, low concentration screen): 97.3%

O=c1cc(N2CCOCC2)oc2c(-c3ccccc3)cccc12 [LY 294002]
remaining activity at 3.75 µM ([1]; Well no.=2465, high concentration screen): 102%
remaining activity at 1.25 µM ([2]; Well no.=2465, low concentration screen): 101%

O=c1cc(N2CCNCC2)oc2c(-c3ccccc3)cccc12 [LY 303511]
remaining activity at 3.75 µM ([1]; Well no.=2467, high concentration screen): 106%
remaining activity at 1.25 µM ([2]; Well no.=2467, low concentration screen): 102%

CN(C)[C@@H]1CCc2[nH]c3ccc(NC(=O)c4ccc(F)cc4)cc3c2C1 [LY 344864]
remaining activity at 3.75 µM ([1]; Well no.=7289, high concentration screen): 91.2%
remaining activity at 1.25 µM ([2]; Well no.=7289, low concentration screen): 93.4%

c1ccc(-c2[nH]ncc2-c2ccnc3ccccc23)nc1 [LY 364947 - 4-[3-(2-Pyridinyl)-1H-pyrazol-4-yl]-quinoline]
remaining activity at 3.75 µM ([1]; Well no.=2622, high concentration screen): 101%
remaining activity at 1.25 µM ([2]; Well no.=2622, low concentration screen): 96.3%

CC(O)C(C)OC(=O)[C@@H]1C[C@@H]2c3cccc4c3c(cn4C(C)C)C[C@H]2N(C)C1 (stereo partly shown) [LY-53,857 maleate]
remaining activity at 3.75 µM ([1]; Well no.=772, high concentration screen): 97.2%
remaining activity at 1.25 µM ([2]; Well no.=772, low concentration screen): 99.8%

CCCc1c(OCCCCc2nnn[nH]2)ccc(C(C)=O)c1O [LY-171,883]
remaining activity at 3.75 µM ([1]; Well no.=835, high concentration screen): 106%
remaining activity at 1.25 µM ([2]; Well no.=835, low concentration screen): 104%

CN1C2CCC1CC(NC(=O)c1nn(C)c3ccccc13)C2 (stereo not shown) [LY-278,584 maleate]
remaining activity at 3.75 µM [1]: 101%
remaining activity at 1.25 µM [2]: 98.8%

O=c1cc(N2CCOCC2)oc2c(-c3ccccc3)cccc12 [LY-294,002 hydrochloride]
remaining activity at 3.75 µM ([1]; Well no.=1077, high concentration screen): 90.8%
remaining activity at 1.25 µM ([2]; Well no.=1077, low concentration screen): 93.7%

O=S1(=O)N(CCN2CC=C(c3c[nH]c4cc(F)ccc34)CC2)c2cccc3c2N1CCC3 [LY-367,265]
remaining activity at 3.75 µM ([1]; Well no.=785, high concentration screen): 103%
remaining activity at 1.25 µM ([2]; Well no.=785, low concentration screen): 100%

CCCc1c(OCCCCc2nnn[nH]2)ccc(C(C)=O)c1O [LY-171883]
remaining activity at 3.75 µM ([1]; Well no.=4522, high concentration screen): 102%
remaining activity at 1.25 µM ([2]; Well no.=4522, low concentration screen): 98%

CC(CCc1ccccc1)NCC(O)c1ccc(O)c(C(N)=O)c1 (stereo not shown) [Labetalol (hydrochloride)]
remaining activity at 3.75 µM ([1]; Well no.=8287, high concentration screen): 94.7%
remaining activity at 1.25 µM ([2]; Well no.=8287, low concentration screen): 99.3%

CC(CCc1ccccc1)NCC(O)c1ccc(O)c(C(N)=O)c1 (stereo not shown) [Labetalol hydrochloride]
remaining activity at 3.75 µM ([1]; Well no.=975, high concentration screen): 101%
remaining activity at 1.25 µM ([2]; Well no.=975, low concentration screen): 102%

CCOC(=O)C1=C(C)NC(C)=C(C(=O)OCC)C1c1ccccc1/C=C/C(=O)OC(C)(C)C [Lacidipine]
remaining activity at 3.75 µM ([1]; Well no.=1798, high concentration screen): 100%
remaining activity at 1.25 µM ([2]; Well no.=1798, low concentration screen): 99.9%

O=C(C[S+]([O-])Cc1ccco1)NC/C=C\COc1cc(CN2CCCCC2)ccn1 (stereo not shown) [Lafutidine]
remaining activity at 3.75 µM ([1]; Well no.=4722, high concentration screen): 95%
remaining activity at 3.75 µM ([1]; Well no.=7581, high concentration screen): 90.4%
remaining activity at 1.25 µM ([2]; Well no.=4722, low concentration screen): 93.3%
remaining activity at 1.25 µM ([2]; Well no.=7581, low concentration screen): 90.1%

C[C@@H]1CC[C@H]2[C@](C)(CO)[C@@H](O)CC[C@]2(C)[C@@]12CC[C@@](CO)(CCO)O2 [Lagochiline]
remaining activity at 3.75 µM ([1]; Well no.=3651, high concentration screen): 101%
remaining activity at 1.25 µM ([2]; Well no.=3651, low concentration screen): 100%

Nc1ccn([C@@H]2CS[C@H](CO)O2)c(=O)n1 [Lamivudine]
remaining activity at 3.75 µM ([1]; Well no.=8142, high concentration screen): 98.2%
remaining activity at 1.25 µM ([2]; Well no.=8142, low concentration screen): 100%

Nc1nnc(-c2cccc(Cl)c2Cl)c(N)n1 [Lamotrigine]
remaining activity at 3.75 µM ([1]; Well no.=977, high concentration screen): 101%
remaining activity at 3.75 µM ([1]; Well no.=1832, high concentration screen): 92.9%
remaining activity at 1.25 µM ([2]; Well no.=977, low concentration screen): 99.1%
remaining activity at 1.25 µM ([2]; Well no.=1832, low concentration screen): 95.1%

Cc1c(OCC(F)(F)F)ccnc1C[S+]([O-])c1nc2ccccc2[nH]1 (stereo not shown) [Lansoprazole]
remaining activity at 3.75 µM ([1]; Well no.=1075, high concentration screen): 98.7%
remaining activity at 1.25 µM ([2]; Well no.=1075, low concentration screen): 98.5%

CS(=O)(=O)CCNCc1ccc(-c2ccc3ncnc(Nc4ccc(OCc5cccc(F)c5)c(Cl)c4)c3c2)o1 [Lapatinib ditosylate]
remaining activity at 3.75 µM ([1]; Well no.=1714, high concentration screen): 105%
remaining activity at 1.25 µM ([2]; Well no.=1714, low concentration screen): 105%

CS(=O)(=O)CCNCc1ccc(-c2ccc3ncnc(Nc4ccc(OCc5cccc(F)c5)c(Cl)c4)c3c2)o1 [Lapatinib]
remaining activity at 3.75 µM ([1]; Well no.=2983, high concentration screen): 92.8%
remaining activity at 1.25 µM ([2]; Well no.=2983, low concentration screen): 94.8%

C/C=C(/C)C(=O)O[C@H]1CC(C)=CC(=O)[C@@]2(C)CC[C@@](O)(C(C)C)[C@H]12 [Lapidin]
remaining activity at 3.75 µM ([1]; Well no.=3159, high concentration screen): 105%
remaining activity at 1.25 µM ([2]; Well no.=3159, low concentration screen): 105%

CCN1C[C@]2(OC(=O)c3ccccc3NC(C)=O)CC[C@H](OC)[C@@]34[C@@H]2C[C@@H]([C@@H]13)[C@@]1(O)C[C@H](OC)[C@H]2C[C@@H]4[C@]1(O)[C@H]2OC [Lappaconitine]
remaining activity at 3.75 µM ([1]; Well no.=3653, high concentration screen): 105%
remaining activity at 1.25 µM ([2]; Well no.=3653, low concentration screen): 103%

CCN(C(=O)c1c(O)c2c(Cl)cccc2n(C)c1=O)c1ccccc1 [Laquinimod (ABR-215062)]
remaining activity at 3.75 µM ([1]; Well no.=4745, high concentration screen): 107%
remaining activity at 1.25 µM ([2]; Well no.=4745, low concentration screen): 105%

CC[C@@H](C(=O)[C@@H](C)[C@@H](O)[C@H](C)CCc1ccc(C)c(O)c1C(=O)O)[C@H]1O[C@](CC)([C@H]2CC[C@](O)(CC)[C@H](C)O2)C[C@@H]1C [Lasalocid A]
remaining activity at 3.75 µM ([1]; Well no.=3737, high concentration screen): 95.2%
remaining activity at 1.25 µM ([2]; Well no.=3737, low concentration screen): 95%

CN1CCC(C(=O)c2cccc(NC(=O)c3c(F)cc(F)cc3F)n2)CC1 [Lasmiditan (hydrochloride)]
remaining activity at 3.75 µM ([1]; Well no.=8055, high concentration screen): 98.4%
remaining activity at 1.25 µM ([2]; Well no.=8055, low concentration screen): 97%
